This assay deals with T1, N-terminal HiBiT tagged BCL6 (Homo sapiens, UniProt P41182).
T1 construct: expressed in transfected cells; host or cells: HT1080 (ATCC CCL-121), stably transduced with lentivirus pLV-UBC-N-HiBiT-BCL6-PGK-puro
Nature of the assay: HiBiT based degradation assay. To be noted: HT1080 cells expressing N-terminal HiBiT tagged BCL6, 5 hours of incubation; for Ymin (5 hr): BCL6 degradation normalized with DMSO control; for DC50: four-parameter logistic model, read-out: EC50 (5 hr). Format: cell-based. From the text:
Human BCL6 protein coding open reading frame fused with N-terminal HiBiT coding sequence was synthesized from Integrated DNA Technologies (IDT). Next, the N-HiBiT-BCL6 sequence was cloned into pLV-UBC-PGK-Puro, a lentivirus plasmid purchased from Vectorbuilder, to generate pLV-UBC-N-HiBiT-BCL6-PGK-puro. Lentiviral particles were generated from Lenti-X™ 293T cells (Clontech) by co-transfection of pLV-UBC-N-HiBiT-BCL6-PGK-puro plasmids and lentiviral packaging plasmid mix (Cellecta). HT1080 [HT1080] (ATCC CCL-121) cells were infected with the lentivirus, and HT1080 cells stably integrated with the lentiviral vectors were established by incubation with 1 μg/mL puromycin (Thermofisher).
HT1080 cells expressing N-terminal HiBiT tagged BCL6 were dispensed into a 384-well plate pre-spotted with compounds at varying concentrations. Five thousand cells were seeded into each well in 40 μL of RPMI 1640 media plus 10% Fetal Bovine Serum (10082-147, Thermofisher). After 5 hours of incubation at 37° C. with 5% CO2, 30 μL of the NANO-GLOR HiBiT Lytic Detection System working solution (Promega) was added to each well and incubated at room temperature for 15 min. After incubation, luminescence was read on a PHERAstar FSX Plate Reader (BMG). BCL6 degradation at each indicated concentration was normalized with DMSO control. The BCL6 degradation curves were plotted using a four-parameter logistic model.

SMILES strings stand for the structures. Where only a bound is given, the exact number is not on record here.

With `CNC(=O)COc1cc2cc(Nc3nc(N4CCN(CC5CCN(c6cccc7c(C8CCC(=O)NC8=O)nn(C)c67)CC5)[C@H](CO)C4)ncc3Cl)cnc2n(C(C)C)c1=O` (stereo partly drawn) [Compound 146a, 2-((6-((5-chloro-2-((3S)-4-((1-(3-(2,6-dioxopiperidin-3-yl)-1-methyl-1H-indazol-7-yl)piperidin-4-yl)methyl)-3-(hydroxymethyl)piperazin-1-yl)pyrimidin-4-yl)amino)-1-isopropyl-2-oxo-1,2-dihydro-1,8-naphthyridin-3-yl)oxy)-N-methylacetamide], the “Ymin (5 hr)” value is “++++ (Ymin < 30%)” and the DC50 was 10 to 100 nM.

As for `CNC(=O)COc1cc2cc(Nc3nc(N4CCN(CC5CCN(c6cccc7c(C8CCC(=O)NC8=O)nn(C)c67)CC5)CC4)ncc3Cl)cnc2n(C2CC2)c1=O` (stereo not drawn) [Compound 150, 2-((6-((5-chloro-2-(4-((1-(3-(2,6-dioxopiperidin-3-yl)-1-methyl-1H-indazol-7-yl)piperidin-4-yl)methyl)piperazin-1-yl)pyrimidin-4-yl)amino)-1-cyclopropyl-2-oxo-1,2-dihydro-1,8-naphthyridin-3-yl)oxy)-N-methylacetamide], the “Ymin (5 hr)” value is “++++ (Ymin < 30%)” and the DC50 was less than 10 nM.

On to `CNC(=O)COc1cc2cc(Nc3nc(N4CCN(C[C@H]5CCN(c6ccc7c(C8CCC(=O)NC8=O)nn(C)c7c6)C5)[C@@H](C)C4)ncc3Cl)cnc2n(C(C)C)c1=O` (stereo partly drawn) [Compound 216a, 2-[[6-[[5-chloro-2-[(3S)-4-[[(3R)-1-[3-(2,6-dioxo-3-piperidyl)-1-methyl-indazol-6-yl]pyrrolidin-3-yl]methyl]-3-methyl-piperazin-1-yl]pyrimidin-4-yl]amino]-1-isopropyl-2-oxo-1,8-naphthyridin-3-yl]oxy]-N-methyl-acetamide], for which the “Ymin (5 hr)” value is recorded as “++ (50% ≤ Ymin < 70%)” and the DC50 lay in the range of 10 to 100 nM.

For `CNC(=O)COc1cc2cc(Nc3cc(N4CCC(CN5CCN(c6cccc7c(C8CCC(=O)NC8=O)nn(C)c67)CC5)CC4)ncc3Cl)cnc2n(C(C)C)c1=O` (stereo not drawn) [Compound 152, 2-((6-((5-chloro-2-(4-((4-(3-(2,6-dioxopiperidin-3-yl)-1-methyl-1H-indazol-7-yl)piperazin-1-yl)methyl)piperidin-1-yl)pyridin-4-yl)amino)-1-isopropyl-2-oxo-1,2-dihydro-1,8-naphthyridin-3-yl)oxy)-N-methylacetamide], the “Ymin (5 hr)” value is given as “+++ (30% ≤ Ymin < 50%)” and the DC50 lay within 10 to 100 nM.

Consider `CNC(=O)COc1cc2cc(Nc3nc(N4CCN(C[C@@H]5CCN(c6ccc7c(C8CCC(=O)NC8=O)nn(C)c7c6)C5)CC4)ncc3Cl)cnc2n(C(C)C)c1=O` (stereo partly drawn) [Compound 228a, 2-[[6-[[5-chloro-2-[4-[[(3S)-1-[3-(2,6-dioxo-3-piperidyl)-1-methyl-indazol-6-yl]pyrrolidin-3-yl]methyl]piperazin-1-yl]pyrimidin-4-yl]amino]-1-isopropyl-2-oxo-1,8-naphthyridin-3-yl]oxy]-N-methyl-acetamide], for which the “Ymin (5 hr)” value is given as “+++ (30% ≤ Ymin < 50%)” and the DC50 is less than 10 nM.

As for `CNC(=O)COc1cc2cc(Nc3nc(N4CCN([C@H](C)C5CCN(c6cccc7c(C8CCC(=O)NC8=O)nn(C)c67)CC5)CC4)ncc3Cl)cnc2n(C(C)C)c1=O` (single isomer, unassigned) [Compound 195b], the “Ymin (5 hr)” value is recorded as “+++ (30% ≤ Ymin < 50%)” and the DC50 fell in the range of 10 to 100 nM.

For `CNC(=O)COc1cc2cc(Nc3nc(N4CCN(C[C@@H]5CCN(c6ccc7c(C8CCC(=O)NC8=O)nn(C)c7c6)C5)[C@@H](C)C4)ncc3Cl)cnc2n(C(C)C)c1=O` (stereo partly drawn) [Compound 216b, 2-((6-((5-Chloro-2-((3S)-4-(((3S)-1-(3-(2,6-dioxopiperidin-3-yl)-1-methyl-1H-indazol-6-yl)pyrrolidin-3-yl)methyl)-3-methylpiperazin-1-yl)pyrimidin-4-yl)amino)-1-isopropyl-2-oxo-1,2-dihydro-1,8-naphthyridin-3-yl)oxy)-N-methylacetamide], the “Ymin (5 hr)” value is “+++ (30% ≤ Ymin < 50%)” and the DC50 was in the range of 10 to 100 nM.

With `CNC(=O)COc1cc2cc(Nc3nc(N4CC5(CC[C@@H](Nc6ccc7c(C8CCC(=O)NC8=O)nn(C)c7c6)[C@H](C)C5)C4)ncc3Cl)cnc2n(C)c1=O` (relative stereo) [Compound 156d, 2-((6-((5-chloro-2-((6R,7R)-7-((3-(2,6-dioxopiperidin-3-yl)-1-methyl-1H-indazol-6-yl)amino)-6-methyl-2-azaspiro[3.5]nonan-2-yl)pyrimidin-4-yl)amino)-1-methyl-2-oxo-1,2-dihydro-1,8-naphthyridin-3-yl)oxy)-N-methylacetamide], the “Ymin (5 hr)” value is on record as “++++ (Ymin < 30%)” and the DC50 is less than 10 nM.

On to `CNC(=O)COc1cc2cc(Nc3nc(N4C[C@@H](C)N(CC5CCN(c6cccc7c(C8CCC(=O)NC8=O)nn(C)c67)CC5)C[C@@H]4C)ncc3Cl)cnc2n(C(C)C)c1=O` (stereo partly drawn) [Compound 179b, 2-[[6-[[5-chloro-2-[(2S,5R)-4-[[1-[3-(2,6-dioxo-3-piperidyl)-1-methyl-indazol-7-yl]-4-piperidyl]methyl]-2,5-dimethyl-piperazin-1-yl]pyrimidin-4-yl]amino]-1-isopropyl-2-oxo-1,8-naphthyridin-3-yl]oxy]-N-methyl-acetamide], for which the “Ymin (5 hr)” value was “+++ (30% ≤ Ymin < 50%)” and the DC50 was in the range of 100 to 1000 nM.

`CNC(=O)COc1cc2cc(Nc3nc(N4CCC([C@H](C)N5CCN(c6cccc7c(C8CCC(=O)NC8=O)nn(C)c67)CC5)CC4)ncc3Cl)cnc2n(C(C)C)c1=O` (single isomer, unassigned) [Compound 193b]: the “Ymin (5 hr)” value is on record as “++++ (Ymin < 30%)” and the DC50 fell in the range of 10 to 100 nM.

Regarding `CNC(=O)COc1cc2cc(Nc3nc(N4CCC(CN5C[C@H]6C[C@@H]5CN6c5cccc6c(C7CCC(=O)NC7=O)nn(C)c56)CC4)ncc3Cl)cnc2n(C(C)C)c1=O` (stereo partly drawn) [Compound 175a, 2-[[6-[[5-chloro-2-[4-[[(1R,4R)-5-[3-(2,6-dioxo-3-piperidyl)-1-methyl-indazol-7-yl]-2,5-diazabicyclo[2.2.1]heptan-2-yl]methyl]-1-piperidyl]pyrimidin-4-yl]amino]-1-isopropyl-2-oxo-1,8-naphthyridin-3-yl]oxy]-N-methyl-acetamide], the “Ymin (5 hr)” value is on record as “+++ (30% ≤ Ymin < 50%)” and the DC50 was less than 10 nM.

In the case of `CNC(=O)COc1cc2cc(Nc3nc(N4CCN(CCC5CCN(c6ccc7c(C8CCC(=O)NC8=O)nn(C)c7c6)CC5)CC4)ncc3Cl)cnc2n(C)c1=O` (stereo not drawn) [Compound 114, 2-((6-((5-chloro-2-(4-(2-(1-(3-(2,6-dioxopiperidin-3-yl)-1-methyl-1H-indazol-6-yl)piperidin-4-yl)ethyl)piperazin-1-yl)pyrimidin-4-yl)amino)-1-methyl-2-oxo-1,2-dihydro-1,8-naphthyridin-3-yl)oxy)-N-methylacetamide], the “Ymin (5 hr)” value was “+++ (30% ≤ Ymin < 50%)” and the DC50 was less than 10 nM.

As for `CNC(=O)COc1cc2cc(Nc3nc(N4CCN(CC5CCN(c6cccc7c6C(=O)N(C6CCC(=O)NC6=O)C7=O)CC5)CC4)ncc3Cl)cnc2n(C)c1=O` (stereo not drawn) [Compound 102, 2-((6-((5-chloro-2-(4-((1-(2-(2,6-dioxopiperidin-3-yl)-1,3-dioxoisoindolin-4-yl)piperidin-4-yl)methyl)piperazin-1-yl)pyrimidin-4-yl)amino)-1-methyl-2-oxo-1,2-dihydro-1,8-naphthyridin-3-yl)oxy)-N-methylacetamide], the “Ymin (5 hr)” value is reported as “++++ (Ymin < 30%)” and the DC50 is 10 to 100 nM.

For the compound `CNC(=O)COc1cc2cc(Nc3nc(N4CCN(CC5CCN(c6cccc7c(C8CCC(=O)NC8=O)nn(C)c67)CC5)C5(CC5)C4)ncc3Cl)cnc2n(C(C)C)c1=O` (stereo not drawn) [Compound 191, 2-[[6-[[5-chloro-2-[4-[[1-[3-(2,6-dioxo-3-piperidyl)-1-methyl-indazol-7-yl]-4-piperidyl]methyl]-4,7-diazaspiro[2.5]octan-7-yl]pyrimidin-4-yl]amino]-1-isopropyl-2-oxo-1,8-naphthyridin-3-yl]oxy]-N-methyl-acetamide], the “Ymin (5 hr)” value was “+++ (30% ≤ Ymin < 50%)” and the DC50 was in the range of 10 to 100 nM.

Turning to `CNC(=O)COc1cc2cc(Nc3nc(N4CCC(CN5C6CC5CN(c5cccc7c(C8CCC(=O)NC8=O)nn(C)c57)C6)CC4)ncc3Cl)cnc2n(C(C)C)c1=O` (stereo not drawn) [Compound 209, 2-[[6-[[5-chloro-2-[4-[[3-[3-(2,6-dioxo-3-piperidyl)-1-methyl-indazol-7-yl]-3,6-diazabicyclo[3.1.1]heptan-6-yl]methyl]-1-piperidyl]pyrimidin-4-yl]amino]-1-isopropyl-2-oxo-1,8-naphthyridin-3-yl]oxy]-N-methyl-acetamide], the “Ymin (5 hr)” value is “+++ (30% ≤ Ymin < 50%)” and the DC50 is less than 10 nM.

Source of the values: patent US20260241012A1, “1,8-NAPHTHYRIDIN-2-ONE HETEROBIFUNCTIONAL BCL6 DEGRADERS” (Treeline Biosciences, Inc., priority 2022, published 2026).
